#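 Growth conditions: 96-well plates. Treatment: test compound, 48 hours, 5 concentrations. Analysis: linear interpolation between bracketing concentrations; unreached endpoints set to highest concentration. TGI is the concentration that stops growth completely.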 Where a SMILES comes first, the peptide text is derived from it. The star is where a group is joined. Boc = CC(C)(C)OC(=O)*; Bn = c1ccc(C*)cc1
# Key:
# Test in all cases: NCI anticancer screen, dose series, 48 h
# CAKI-1 renal = tested on: CAKI-1 renal
# OVCAR-3 ovarian = tested on: OVCAR-3 ovarian
# PC-3 prostate = tested on: PC-3 prostate
# T-47D breast = tested on: T-47D breast
# COLO 205 colon = tested on: COLO 205 colon
# NCI-H23 lung = tested on: NCI-H23 lung
# MDA-MB-231 breast = tested on: MDA-MB-231 breast
# EKVX NSCLC = tested on: EKVX NSCLC
# SNB-19 CNS = tested on: SNB-19 CNS
# NCI-H226 lung = tested on: NCI-H226 lung
SMILES,TGI (CAKI-1 renal),TGI (OVCAR-3 ovarian),TGI (PC-3 prostate),TGI (T-47D breast),TGI (COLO 205 colon),TGI (NCI-H23 lung),TGI (MDA-MB-231 breast),TGI (EKVX NSCLC),TGI (SNB-19 CNS),TGI (NCI-H226 lung)
NC(N)=NS(=O)(=O)c1ccc(NNc2c3ccccc3nc3c(C(=O)Nc4ccc(S(=O)(=O)Nc5ncccn5)cc4)cccc23)cc1,> 100 µM,> 100 µM,> 100 µM,> 100 µM,> 100 µM,> 100 µM,> 100 µM,96.2 µM,> 100 µM,–
CC1(C)/C(=N\NC(N)=O)C2CCC1C2 (stereo not given),> 100 µM,> 100 µM,> 100 µM,> 100 µM,> 100 µM,> 100 µM,–,> 100 µM,> 100 µM,> 100 µM
COC(=O)c1c(O)ccc2c1c1c(n2Cc2cc(OC)cc(OC)c2)C(=O)c2ccccc2C1,63.7 µM,> 100 µM,49.1 µM,–,26 µM,> 100 µM,91.6 µM,–,> 100 µM,> 100 µM
COc1cccc(CCNC(=O)Cc2ccccc2CCO)c1,> 100 µM,> 100 µM,> 100 µM,> 100 µM,> 100 µM,> 100 µM,> 100 µM,> 100 µM,> 100 µM,> 100 µM
Cc1ccc(-c2c(C#N)c(-c3ccc(C)cc3)n(NS(=O)(=O)c3ccccc3)c(=O)c2C#N)cc1,> 100 µM,–,> 100 µM,–,> 100 µM,–,> 100 µM,> 100 µM,> 100 µM,> 100 µM
Cc1ccc(S(=O)(=O)c2[nH]cc(/C(=C\C3CCCCC3)[N+](=O)[O-])c2C2CCCCC2)cc1,0.531 µM,0.981 µM,2.53 µM,1.29 µM,0.602 µM,3.1 µM,0.515 µM,1.4 µM,3.98 µM,9.9 µM
O=c1oc2ccccc2cc1-c1cc2ccccn2c1,> 100 µM,> 100 µM,> 100 µM,–,> 100 µM,> 100 µM,> 100 µM,> 100 µM,> 100 µM,> 100 µM
O=[N+]([O-])C[C@@]12O[C@]3(O)C4C5CC(C6C5C3C61)C42 (stereo not given in full),> 100 µM,> 100 µM,> 100 µM,> 100 µM,> 100 µM,> 100 µM,> 100 µM,> 100 µM,> 100 µM,> 100 µM
CC(C)NC(=O)OCc1c(COC(=O)NC(C)C)c(-c2cc[n+](COC(=O)C3CC3)cc2)n2c1CCC2,> 100 µM,> 100 µM,> 100 µM,> 100 µM,> 100 µM,> 100 µM,> 100 µM,> 100 µM,> 100 µM,> 100 µM
O=C(N/N=C(\c1ccccc1)c1ccccn1)NC1CCCCC1,> 100 µM,> 100 µM,> 100 µM,> 100 µM,> 100 µM,> 100 µM,> 100 µM,> 100 µM,> 100 µM,83.2 µM
COc1cc2c(cc1OC)C(CC1=C(c3ccccc3)CN3CCc4cc(OC)c(OC)cc4C3C1)NCC2 (stereo not given),44.6 µM,34.8 µM,–,–,31.4 µM,52.8 µM,–,38.8 µM,38.8 µM,37.2 µM
O=[N+]([O-])c1ccc2[nH]c(=S)[nH]c(=S)c2c1,> 100 µM,> 100 µM,> 100 µM,> 100 µM,> 100 µM,> 100 µM,> 100 µM,> 100 µM,> 100 µM,> 100 µM
Cc1ccc(C2SCC(=O)N2c2ccc(-n3c(-c4ccccc4)nc4ccccc4c3=O)cc2)cc1 (stereo not given),> 100 µM,51.9 µM,55.4 µM,67.3 µM,> 100 µM,> 100 µM,39.6 µM,–,> 100 µM,57.3 µM
O=C1Nc2cccc(Cl)c2/C1=C\c1c(Cl)nc2n1CCS2,> 100 µM,> 100 µM,> 100 µM,> 100 µM,> 100 µM,> 100 µM,> 100 µM,> 100 µM,> 100 µM,–
CO/N=C(\C(=O)OC(=NC1CCCCC1)NC1CCCCC1)c1csc(NC(c2ccccc2)(c2ccccc2)c2ccccc2)n1,> 10 µM,> 10 µM,> 10 µM,> 10 µM,> 10 µM,> 10 µM,–,> 10 µM,> 10 µM,> 10 µM
CCn1c(-c2ccccc2)cs/c1=N\C(P(=O)(O)O)P(=O)(O)O,> 100 µM,> 100 µM,> 100 µM,–,> 100 µM,> 100 µM,> 100 µM,> 100 µM,> 100 µM,> 100 µM
N#CC1C(=S)NC(c2ccccc2)=CC12CCCCC2 (stereo not given),> 100 µM,–,> 100 µM,31.1 µM,> 100 µM,36.9 µM,> 100 µM,44.6 µM,> 100 µM,77.4 µM
O=C(O)CCCc1nc2c(n1Cc1ccccc1)C(=O)c1ccccc1C2=O,> 100 µM,74.7 µM,–,> 100 µM,> 100 µM,> 100 µM,> 100 µM,> 100 µM,> 100 µM,–
CCOC(=O)Nc1[nH]cc(-c2ccccc2)c1C#N,–,> 100 µM,> 100 µM,–,> 100 µM,> 100 µM,> 100 µM,> 100 µM,> 100 µM,> 100 µM
C=CCc1cccc2cc(C(=O)NCc3ccccc3)c(=N)oc12,> 100 µM,58.6 µM,> 100 µM,> 100 µM,> 100 µM,> 100 µM,> 100 µM,> 100 µM,> 100 µM,79.3 µM
CCOC(=O)CCC(NC(=O)Cc1ccc(Nc2nc3cc(F)c(F)cc3nc2C(=O)OCC)cc1)C(=O)OCC (stereo not given),> 100 µM,> 100 µM,> 100 µM,78.8 µM,> 100 µM,> 100 µM,> 100 µM,> 100 µM,> 100 µM,> 100 µM
Cc1ccc(/C=N/Nc2cc(C)c3cccc(C)c3n2)s1,> 100 µM,22.2 µM,40.8 µM,> 100 µM,28.7 µM,35.2 µM,–,38.2 µM,> 100 µM,37.5 µM

SMILES,TGI (CAKI-1 renal),TGI (OVCAR-3 ovarian),TGI (PC-3 prostate),TGI (T-47D breast),TGI (COLO 205 colon),TGI (NCI-H23 lung),TGI (MDA-MB-231 breast),TGI (EKVX NSCLC),TGI (SNB-19 CNS),TGI (NCI-H226 lung)
CC1(C)[C@@H](Cn2ccc(=O)[nH]c2=O)CC[C@@]1(C)CO,> 100 µM,> 100 µM,> 100 µM,> 100 µM,> 100 µM,–,> 100 µM,> 100 µM,> 100 µM,> 100 µM
Cc1n(Cc2ccccc2)c2c([n+]1C)C(=O)c1ccccc1C2=O,11.3 µM,0.0771 µM,0.999 µM,1.33 µM,0.0794 µM,0.177 µM,0.299 µM,1.01 µM,0.0916 µM,0.514 µM
CC(=O)c1ccccc1NP(=O)(c1ccccc1)c1ccccc1,> 100 µM,> 100 µM,> 100 µM,> 100 µM,34.4 µM,> 100 µM,> 100 µM,> 100 µM,> 100 µM,–
O=c1[nH]cnc2c1cnn2Cc1cn(CCCCO)nn1,> 100 µM,> 100 µM,> 100 µM,> 100 µM,> 100 µM,> 100 µM,> 100 µM,> 100 µM,> 100 µM,> 100 µM
O=C1C2SC34c5c2c2ccccc2n5CCC3CCCN14 (stereo not given),> 100 µM,> 100 µM,> 100 µM,> 100 µM,> 100 µM,> 100 µM,> 100 µM,> 100 µM,> 100 µM,> 100 µM
COC(=O)/C=C(\C(=O)OC)C1C(=O)Oc2c(C)c(=O)c3ccccc3n21 (stereo not given),> 100 µM,> 100 µM,> 100 µM,> 100 µM,> 100 µM,> 100 µM,> 100 µM,> 100 µM,> 100 µM,> 100 µM
COC(=O)c1ccc(/C=C/c2cc(O)ccc2O)cc1,7.5 µM,6.86 µM,22.2 µM,5.32 µM,22.8 µM,> 38.5 µM,24 µM,9.66 µM,> 100 µM,> 27 µM
CN(C)c1ccc(/C=c2/c3ccccc3n3c2c2c([n+]3C)CCCC2)cc1,4.8 µM,1.17 µM,2.06 µM,0.362 µM,0.168 µM,6.49 µM,2.79 µM,0.353 µM,6.68 µM,2.43 µM
O=C1COc2cccnc2N1CCCCO,> 100 µM,> 100 µM,> 100 µM,> 100 µM,–,–,> 100 µM,> 100 µM,> 100 µM,–
CN=C(n1ccnc1)n1ccnc1,> 100 µM,> 100 µM,> 100 µM,> 100 µM,> 100 µM,> 100 µM,> 100 µM,> 100 µM,> 100 µM,> 100 µM
C/C=C/C(CC(O)(C(F)(F)F)C(F)(F)F)=N/NC(N)=S,> 10 µM,> 10 µM,> 10 µM,> 10 µM,> 10 µM,> 10 µM,> 10 µM,> 10 µM,> 10 µM,> 10 µM
COC(=O)C(CC(C)C)NC(=O)C(C)NC(=O)C(Cc1ccc(OCc2ccccc2)cc1)NC(=O)C(COCc1ccccc1)NC(=O)OC(C)(C)C (stereo not given) (Boc-S(Bn)Y(Bn)AL-OMe; configuration not given here),> 100 µM,> 100 µM,> 100 µM,> 100 µM,> 100 µM,> 100 µM,–,> 100 µM,> 100 µM,> 100 µM
C[C@H]1[C@H]2[C@H]3CC[C@@H]4[C@@]5(C)CC[C@H](O)C(C)(C)[C@@H]5CC[C@@]4(C)[C@]3(C)C[C@H](O)[C@@]2(C)C[C@H]2O[C@]21C,69.8 µM,36.4 µM,27.1 µM,46.8 µM,58.7 µM,40.3 µM,36.9 µM,73.9 µM,49.7 µM,–
CC(=O)N=C1N(/C=C2\C(=O)Oc3ccccc3C2=O)C(=O)/C(=C/c2cccc(Cl)c2Cl)N1C,65.8 µM,20 µM,> 100 µM,> 100 µM,74 µM,> 100 µM,86.4 µM,> 100 µM,–,94.2 µM
CCCC(=O)NC(NC1CCCCC1)(C(=O)OCC)C(F)(F)F (stereo not given),–,> 100 µM,> 100 µM,> 100 µM,–,> 100 µM,–,> 100 µM,> 100 µM,> 100 µM
Cc1c(C)c2c(c(N)c1C#N)C(=O)N(NC(=O)c1ccccc1)C2=O,> 100 µM,> 100 µM,> 100 µM,> 100 µM,> 100 µM,–,> 100 µM,> 100 µM,> 100 µM,> 100 µM
CC1CC(OP(=O)(OCc2ccccc2)OCc2ccccc2)[C@@H](OCc2ccccc2)C(OCc2ccccc2)C1OCc1ccccc1 (stereo not given in full),> 100 µM,–,> 100 µM,> 100 µM,> 100 µM,> 100 µM,> 100 µM,> 100 µM,> 100 µM,> 100 µM
O=C(/C=C/c1ccccc1)Oc1cccc(O)c1,> 100 µM,> 100 µM,> 100 µM,> 100 µM,> 100 µM,> 100 µM,> 100 µM,–,76.1 µM,> 100 µM
COc1cc(OC)c2nc(C)c(CCCl)c(Cl)c2c1,> 100 µM,> 100 µM,> 100 µM,–,> 100 µM,> 100 µM,> 100 µM,> 100 µM,> 100 µM,> 100 µM
C[n+]1c2ccc(Cl)cc2nc2cc(-c3ccccc3)ccc21,37.7 µM,6.44 µM,47.3 µM,–,16 µM,23.2 µM,44 µM,29.9 µM,9.59 µM,44.2 µM
CCOC1(OCC)C2C=CC1C(COS(=O)(=O)c1ccc(C)cc1)C2COS(=O)(=O)c1ccc(C)cc1 (stereo not given),–,> 100 µM,74.6 µM,85.1 µM,50.7 µM,> 100 µM,69.5 µM,> 100 µM,> 100 µM,91.1 µM
CCCCCCNc1n[nH]c(=O)c2c1nnn2Cc1ccccc1,> 100 µM,> 100 µM,> 100 µM,–,> 100 µM,> 100 µM,> 100 µM,> 100 µM,> 100 µM,–

# Source: PubChem BioAssay (NCI)
